# Measured values: patent US20210189643A1 (VF Jeanswear LP, priority 2017, published 2021)
# Test: Hydrolysis of modified indigo compound to indigo
# Format: physicochemical
# Settings: under hydrolyzing conditions
# Method: In some embodiments, the substrate is contacted with a hydrolyzing agent, the hydrolyzing agent being capable of reacting with the modified indigo compound contained within the substrate to convert the modified indigo compound into indigo.
# The hydrolysis is performed using any chemical compound or condition that is capable of converting the dye compound to indigo. In some embodiments, the hydrolysis is performed in aqueous compositions which contain a hydrolyzing agent. In other embodiments, the hydrolyzing agent may be selected by one skilled in the art and may include, without limitation, a base, heat, steam, or a combination thereof.
smiles,measurement,value
O=C1/C(=C2/C(=O)c3ccccc3N2C(=O)c2ccncc2)N(C(=O)c2ccncc2)c2ccccc21 [Compound 37],conversion to indigo by hydrolysis,hydrolyzes to indigo
